“And” between values parts separate entries of the source, which are not always exact repeats. Identical values can stand only once.

Experiment [1] relates to adolescents with Single Ventricle Heart Disease who underwent Fontan palliation. The experiment in a line: FALD study: circulating biomarkers of heart failure and liver fibrosis (HA, PIIINP, TIMP-1, BNP and others). On the set-up: HA, Post Baseline / TIMP−1, Post Baseline: unit not given beside the values; HA, Change from Baseline / TIMP−1, Change from Baseline / BNP, Change from Baseline: unit not given here. The note with it: Cohort U− (udenafil for 52 weeks), individual subject. The format is in vivo, human. From the text:
As noted previously, increased liver stiffness can be secondary to hepatic congestion and/or hepatic fibrosis. […] For instance, patients with increased liver stiffness due to hepatic congestion may have increased biomarkers of heart failure (e.g., BNP, NT-proBNP). […] The relative contribution of congestion or fibrosis (as determined by biomarker profiles) to the observed level of liver stiffness may correlate with which therapeutic strategies are likely to be successful in a particular patient. Therefore, in this aim, we sought to determine which circulating biomarkers correlate with measures of liver stiffness and which correlate with a change in liver stiffness with udenafil treatment. We used both a directed approach, with an analysis of candidate biomarkers validated for other disease processes, and a non-directed approach, which identifies novel biomarkers associated with FALD. The FALD study, ClinicalTrials.gov Identifier: NCT03430583, which is incorporated herein by reference in its entirety, was an open-label extension study that integrated with the FUEL Extension Trial. […] Both the U− cohort and the U+ cohort had liver stiffness measured by ultrasound and MR elastography (where available), and ELF biomarkers analyzed, as described above. […] The Enhanced Liver Fibrosis (ELF) scores were based on the serum levels of hyaluronic acid (HA), amino-terminal propeptide of type III collagen (PIIINP), and tissue inhibitor of metalloproteinase-1 (TIMP-1). Testing was performed by the FUEL-OLE Central Laboratory using the serum samples. In accordance with prior studies, we assigned those patients with scores of <7.7 to the no-fibrosis or mild fibrosis group, 7.7-9.8 to the moderate fibrosis group, 9.8-11.3 to the severe fibrosis group, and >11.3 to the cirrhosis group.

For experiment [2], the system named is adolescents with Fontan physiology. Description: FUEL trial: echocardiographic myocardial performance index (MPI), blood pool Doppler. It counts as in vivo, human. From the text: Generally speaking, MPI (also referred to as the Doppler-derived index or Tei Index) is a measure of ventricular systolic and diastolic function as determined by a focused echocardiogram. It combines systolic and diastolic time intervals to assess heart function. More specifically, MPI can be used to assess ventricular performance represented by a numeric value using cardiac time intervals. This numeric value equals the sum of isovolumetric contraction time (ICT) and isovolumetric relaxation time (IRT) divided by ejection time (ET) and can be determined for either the left or right ventricle. Pellett, A. A., et al.: The Tei Index: Methodology and Disease. State Values. Echocardiography: A Jrnl. of CV Ultrasound & Allied Tech. 21(7):669-672 (2004); and Uluçay, A., Tatli E.: Myocardial performance index. Anadolu Kardiyol Derg. 8(2):143-8 (April, 2008), both of which are incorporated herein by reference in their entireties. In the FUEL Trial, the MPI measured the performance of the single functioning ventricle. Thus, the MPI results from the FUEL Trial were determined by velocities obtained from blood pool Doppler assessment of the inflow and outflow tract of the functioning single ventricle. In other words, the FUEL Trial MPI was determined by measuring the cardiac time intervals using pulsed-wave Doppler velocity spectra of the ventricular inflow and outflow of the single functioning ventricle.
Echocardiograms were performed by sonographers with specific training for this protocol. The primary outcome of interest was MPI using Doppler-based measures of inflow and outflow duration. The duration of inflow into the dominant ventricle and outflow across the dominant semilunar valve were measured and used to calculate MPI using the standard formula. Tei C, Ling L H, Hodge D O, et al.: New index of combined systolic and diastolic myocardial performance: a simple and reproducible measure of cardiac function—a study in normal and dilated cardiomyopathy. J Cardiol, 26(6):357-66 (1995); and Pellet A A et al.: The Tei Index: Methodology and Disease State Values. Echocardiography: A Jrnl Of CV Ultrasound & Allied Tech, 21(7):669-672 (2004). Additional tissue Doppler images were obtained and used to calculate the tissue Doppler based MPI as previously described. Harada K, Tamura M, Toyono M et al.: Comparison of the right ventricular Tei index by tissue Doppler imaging to that obtained by pulsed Doppler in children without heart disease. Am J Cardiol, 90(5):566-9 (2002). Whenever possible, three measurements were made and the mean duration was used for the calculation.
The primary outcome was the change in oxygen consumption at peak exercise (max or peak VO2) from baseline to the 26-week visit. Secondary exercise outcomes included change in additional measures at maximal exertion, as well as change in measures of submaximal exercise at the ventilatory anaerobic threshold (VAT). […] Safety was monitored through adverse event reports, which were collected according to a pre-specified protocol of study coordinator outreach, and through ad hoc patient and family communication with members of the study team at each site.
Each subject underwent an echocardiogram at the start and finish of the 26 weeks. […] The change in the MPI was determined by velocities obtained from blood pool Doppler assessment of the inflow and outflow tract of the single functioning dominant ventricle. […]

Take `CCCOc1ccc(S(=O)(=O)NCCC2CCCN2C)cc1-c1nc2c(CCC)nn(C)c2c(=O)[nH]1` (centres unmarked) [Udenafil, udenafil]: in experiment [1], the “BNP, % Change from Baseline” value was −83.33% and −55.56% and −96.2963% and −33.75% and −25.17% and −20%; the “BNP, Change from Baseline” value is −5 and −25 and −26 and −10.7 and −3.7 and −6.5 and −3; the “HA, % Change from Baseline” value was −23.28% and −55.89% and −92.1% and −78.47% and 255.6% and 69.68%; the “HA, Change from Baseline” value is −10.87 and −67.92 and −82.42 and −137.35 and 54.28 and 27.67 and 3.05. Besides, in experiment [1], the “PIIINP, % Change from Baseline” value was −52.39% and −50.4522% and 5.12% and −50.05% and −15.3% and 66.2%; the “PIIINP, Change from Baseline” value is −19.04 and −15.62 and 0.77 and −23.08 and −2.33 and 9.99 and 1.99; the “TIMP−1, % Change from Baseline” value was 1.424% and 1.608% and 25.82% and −5.136% and 3.739% and 19.54%; the “TIMP−1, Change from Baseline” value is 2.3 (2×) and 39.4 and −9.8 and 6.2 and 47.1 and 56.3. Moreover, in experiment [1] (Post Baseline visit (52 week)), the “BNP, Post Baseline” value was 1 (2×) and 20 and 21 and 11 and 26 and 3; the “HA, Post Baseline” value is 35.83 and 53.6 and 7.07 and 37.68 and 75.52 and 67.38 and 23.1; the “PIIINP, Post Baseline” value is 17.3 and 15.34 and 15.81 and 23.03 and 12.9 and 25.08 and 27.3; the “TIMP−1, Post Baseline” value was 163.8 and 145.3 and 192 and 181 and 172 and 288.2 and 290.4. For the same compound, the “MPI difference, Week 26 - Baseline, mean” value in experiment [2] (87.5 mg twice daily, paired data, decrease shows improvement, p 0.028 vs placebo) is on record as 122: −0.02. Moreover, the “MPI, LS Mean Dif A − B (udenafil − placebo)” value in experiment [2] (Baseline, p 0.818) is given as −0.0. The “MPI, LS Mean Dif A − B (udenafil − placebo)” value in experiment [2] (Week 26, p 0.024) was −0.04. The “MPI, LS Mean Dif A − B (udenafil − placebo) of difference Week 26 - Baseline” value in experiment [2] (p 0.028) is on record as −0.03. For the same compound, the “MPI, udenafil treated group compared to placebo” value in experiment [2] (p=0.028) was “statistically significant improvement”.

The record behind these values is US20250186448A1 (Mezzion Pharma Co., Ltd., priority 2021, published 2025).
